Tests used:
DGKa = DGKa (Homo sapiens (Human), UniProt P23743); test: biochemical;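 further: biochemical DGK kinase assay, ADP-Glo luminescence from ADP made by phosphorylating 1,2-dioleoyl-sn-glycerol, 20 min compound preincubation then 40 min reaction at 25 °C, 1% DMSO control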
Procedure: The DGKa and DGKz kinase assays were performed using Promega ADP-Glo kit (Promega, Cat #V9102). One microliter test compound was added to a 384-well plate. Reactions were performed in a 5 uL volume by adding 2 uL mixture of DGK enzyme and ATP in assay buffer (50 mM MOPS pH 7.5, 100 mM NaCl, 10 mM MgCl2, 1 mM CaCl2, 0.0025% BSA, and 1 mM DTT). […] The enzyme solution was incubated with test compound at 25 ? for 20 min. […] The reaction was initiated by the addition of 2 uL of substrate solution (7 uM 1.2-dioleoyl-sn-glycerol, 5 mM octyl-b-D-glucopyranoside) in the 5 uL assay volume. The resulting mixture was incubated at 25° C. for 40 minutes. Next, 5 uL of ADP-Glo-reagent was added to the plate and incubated for 40 minutes. Then 10 uL of kinase detection reagent was added and incubated for 30 minutes. Luminescence was recorded using an Tecan SPARK microplate reader. 1% DMSO vehicle was used as control and no enzyme well was used as blank well.

DGKz = DGKz (Homo sapiens (Human), UniProt Q13574); test: DGK ADP-Glo kinase assay (DGKz); assay type: biochemical; settings: 5 nM DGKz, 15 uM ATP
Procedure: Luminescence was recorded using an Tecan SPARK microplate reader.

PBMC = test: Human PBMC IL-2 assay; assay type: cell-based; settings: anti-CD3/CD28 stimulation overnight, IL-2 level
Summary of the method: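 Healthy-donor frozen PBMC were thawed, rested 4 h at 37 °C and plated at ~200,000 cells/well. Cells were preincubated 60 min at 37 °C with compound solution (10 uM to 0.6 nM, 8 points, 4-fold, as added), then stimulated overnight with anti-CD3/CD28. Supernatant IL-2 was quantified by immunoassay kit and plotted against log compound concentration.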

Sequence of DGKz (Q13574 whole entry): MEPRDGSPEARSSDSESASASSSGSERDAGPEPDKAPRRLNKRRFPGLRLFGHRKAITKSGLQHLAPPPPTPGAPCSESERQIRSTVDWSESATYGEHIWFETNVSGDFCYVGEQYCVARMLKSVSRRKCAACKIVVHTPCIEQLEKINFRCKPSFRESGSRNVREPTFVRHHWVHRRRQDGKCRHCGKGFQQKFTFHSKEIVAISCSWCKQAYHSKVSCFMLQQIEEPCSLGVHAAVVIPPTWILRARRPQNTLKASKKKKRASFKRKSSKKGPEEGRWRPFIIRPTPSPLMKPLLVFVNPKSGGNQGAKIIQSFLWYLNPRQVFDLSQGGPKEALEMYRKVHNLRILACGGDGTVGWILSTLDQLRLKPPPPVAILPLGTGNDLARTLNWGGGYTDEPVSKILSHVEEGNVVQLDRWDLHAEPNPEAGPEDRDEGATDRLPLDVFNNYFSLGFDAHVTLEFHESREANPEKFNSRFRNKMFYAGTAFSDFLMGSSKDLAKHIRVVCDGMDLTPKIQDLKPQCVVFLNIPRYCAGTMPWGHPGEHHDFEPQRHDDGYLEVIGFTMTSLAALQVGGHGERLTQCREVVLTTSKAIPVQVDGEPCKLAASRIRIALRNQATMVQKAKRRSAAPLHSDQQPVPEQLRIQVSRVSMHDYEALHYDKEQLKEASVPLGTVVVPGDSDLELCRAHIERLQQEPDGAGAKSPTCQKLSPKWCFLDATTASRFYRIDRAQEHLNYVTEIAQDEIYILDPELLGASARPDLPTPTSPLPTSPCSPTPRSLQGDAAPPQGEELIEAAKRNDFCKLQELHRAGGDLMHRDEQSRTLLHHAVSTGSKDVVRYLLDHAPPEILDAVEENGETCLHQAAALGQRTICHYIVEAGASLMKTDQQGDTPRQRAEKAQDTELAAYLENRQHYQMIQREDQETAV
Sequence of DGKa (P23743 whole entry): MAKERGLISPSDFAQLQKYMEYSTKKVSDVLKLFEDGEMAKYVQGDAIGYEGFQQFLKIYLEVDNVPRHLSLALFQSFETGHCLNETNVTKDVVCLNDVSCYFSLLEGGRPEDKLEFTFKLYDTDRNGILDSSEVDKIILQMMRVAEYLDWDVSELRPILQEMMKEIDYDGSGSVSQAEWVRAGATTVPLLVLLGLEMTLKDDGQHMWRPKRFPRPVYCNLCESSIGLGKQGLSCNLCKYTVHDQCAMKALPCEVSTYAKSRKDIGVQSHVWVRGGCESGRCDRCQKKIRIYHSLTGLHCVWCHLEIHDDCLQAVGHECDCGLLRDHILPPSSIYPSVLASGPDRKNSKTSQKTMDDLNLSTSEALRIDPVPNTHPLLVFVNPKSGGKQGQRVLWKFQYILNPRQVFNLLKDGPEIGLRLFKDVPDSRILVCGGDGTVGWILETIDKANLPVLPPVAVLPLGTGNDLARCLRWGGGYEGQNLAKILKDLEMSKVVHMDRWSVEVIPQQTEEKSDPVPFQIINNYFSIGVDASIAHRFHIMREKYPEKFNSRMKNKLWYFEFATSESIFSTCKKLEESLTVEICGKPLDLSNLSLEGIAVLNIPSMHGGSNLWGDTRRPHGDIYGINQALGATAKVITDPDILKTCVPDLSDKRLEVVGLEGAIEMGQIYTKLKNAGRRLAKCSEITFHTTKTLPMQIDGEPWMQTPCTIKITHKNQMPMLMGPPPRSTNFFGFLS

Structure (SMILES)	IC50 (DGKa) [µM]	IC50 (DGKz) [µM]	EC50 (PBMC) [µM]
CC[C@H]1CN([C@H]2CCCCc3cc(C(F)(F)F)ccc32)[C@H](CC)CN1c1nc(=O)n(C)c2ccc(C#N)nc12 [Compound 44]	0.04	0.315	
CC[C@@H]1CN(c2nc(=O)n(C)c3ccc(C#N)nc23)[C@@H](C)CN1[C@@H](CC)c1ccc(S(F)(F)(F)(F)F)cc1 (stereo in doubt) [Compound 60]	0.083	0.028	
CC[C@H]1CN([C@H](CC)c2cccc(S(F)(F)(F)(F)F)c2)[C@H](CC)CN1c1nc(=O)n(C)c2ccc(C#N)nc12 (stereo in doubt) [Compound 56]	0.415	0.131	
N#Cc1cc2c3c(n1)c(N1CCC4(CC1)CC(c1ccc(OC(F)(F)F)cc1)=NO4)nc(=O)n3CCO2 [Compound 59]	0.028	0.162	
CC[C@H]1C[C@@H](c2nc3cc(C)ccc3o2)CCN1c1nc(=O)n(C)c2cc(O[C@@H]3CCOC3)c(Cl)cc12 (single isomer, unassigned) [Compound 94]	0.14	1.3	
CC[C@@H]1C[C@H](c2nc3cc(C)ccc3o2)CCN1c1nc(=O)n(C)c2cc(O[C@H]3CCOC3)c(Cl)cc12 [Compound 91]	0.029	6.06	
CC[C@H]1CN([C@H](CC)c2ccc(S(F)(F)(F)(F)F)cc2)[C@H](CC)CN1c1nc(=O)n(C)c2ccc(C#N)nc12 [Compound 29]	0.014	0.055	
CC[C@H]1CN([C@H](C)c2ccc(S(F)(F)(F)(F)F)cc2)[C@H](CC)CN1c1nc(=O)n(C)c2ccc(C#N)nc12 (stereo in doubt) [Compound 63]	0.016	0.639	
CC[C@@H]1CN(c2nc(=O)n(C)c3ccc(C#N)nc23)[C@@H](C)CN1[C@H](CC)c1ccc(S(F)(F)(F)(F)F)cc1 (stereo in doubt) [Compound 61]	0.128	0.18	
CC[C@H]1CN([C@@H](C)c2ccc(S(F)(F)(F)(F)F)cc2)[C@H](CC)CN1c1nc(=O)n(C)c2ccc(C#N)nc12 (stereo in doubt) [Compound 62]	0.035	0.132	
CC[C@@H]1C[C@H](Oc2ccc(OC(F)(F)F)cc2)CCN1c1nc(=O)n(C)c2ccc(C#N)nc12 [Compound 16]	0.926	0.058	
CC[C@H]1CN([C@H](CC)c2cccc(C(F)(F)F)c2)[C@H](CC)CN1c1nc2nncn2c2ccc(C#N)nc12 (stereo in doubt) [Compound 106]	0.024	0.555	
CC[C@@H]1CN(c2nc(=O)n(C)c3ccc(C#N)nc23)[C@@H](C)CN1C(c1ccc(S(F)(F)(F)(F)F)cc1)c1nc(C2CC2)no1 (stereo partly shown) [Compound 65]	0.014	0.059	
CC[C@@H]1C[C@H](c2nc3cc(C)ccc3o2)CCN1c1nc(=O)n(C)c2cc(O[C@@H]3CCOC3)c(Cl)cc12 [Compound 92]	0.227	0.006	
CC[C@@H]1C[C@@]2(CCN1c1nc(=O)n(C)c3ccc(C#N)nc13)CC(c1ccc(OC(F)(F)F)cc1)=NO2 (single isomer, unassigned) [Compound 75]	0.253	0.66	
CC[C@H]1C[C@@H](Oc2ccc(OC(F)(F)F)cc2)CCN1c1nc(=O)n(C)c2ccc(C#N)nc12 [Compound 17]	0.053	0.212	0.401
CC[C@H]1CN([C@@H](CC)c2ccc(S(F)(F)(F)(F)F)cc2)[C@H](CC)CN1c1nc(=O)n2c3c(cc(C#N)nc13)OCC2 (stereo in doubt) [Compound 83]	0.023	0.124	
CC[C@@H]1CN(c2nc3nncn3c3ccc(C#N)nc23)[C@@H](CC)CN1C(=O)Cc1ccc(C(F)(F)F)cc1 [Compound 85]	0.018	0.77	
CC[C@@H]1CN(c2nc(=O)n(C)c3ccc(C#N)nc23)[C@@H](C)CN1[C@H](c1ccc(F)cc1)c1ccc(SC(F)(F)F)cn1 [Compound 73]	0.015	0.058	
CC[C@H]1CN([C@@H](C)c2ccc(SC(F)(F)F)cc2)[C@H](CC)CN1c1nc2nncn2c2ccc(C#N)nc12 (stereo in doubt) [Compound 51]	0.058	0.05	
CC[C@@H]1CN(c2nc3nncn3c3ccc(C#N)nc23)[C@@H](C)CN1[C@H](CC)c1ccc(SC(F)(F)F)cc1 (stereo in doubt) [Compound 71]	0.021	0.236	
CC[C@H]1CN([C@H](CC)c2ccc(S(F)(F)(F)(F)F)cc2)[C@H](CC)CN1c1nc(=O)n2c3c(cc(C#N)nc13)OCC2 (stereo in doubt) [Compound 79]	0.111	0.333	
CC[C@H]1CN([C@@H](C)c2ccc(S(F)(F)(F)(F)F)cc2)[C@H](CC)CN1c1nc2nncn2c2ccc(C#N)nc12 (stereo in doubt) [Compound 88]	0.018	0.038	
CC[C@@H]1CN2c3c(c(=O)n(C)c4ccc(C#N)nc34)OC[C@@H]2CN1[C@@H](CC)c1ccc(SC(F)(F)F)cc1 [Compound 123]	0.078	0.798	
CC[C@H]1CN([C@H](c2ccc(S(F)(F)(F)(F)F)cc2)C2CC2)[C@H](CC)CN1c1nc(=O)n(C)c2ccc(C#N)nc12 (stereo in doubt) [Compound 117]	0.018	0.2	

The next molecules have a lower IC50 (DGKa) than those just listed; values first:

IC50 (DGKa) [µM]	IC50 (DGKz) [µM]	Structure (SMILES)	EC50 (PBMC) [µM]
0.012	0.027	CC[C@@H]1CN(c2nc3nncn3c3ccc(C#N)nc23)[C@@H](C)CN1[C@@H](CC)c1ccc(S(F)(F)(F)(F)F)cc1 (stereo in doubt) [Compound 80]	
0.012	0.13	CC[C@H]1C[C@@H](c2nc3cc(C)ccc3o2)CCN1c1nc(=O)n(C)c2cc(O[C@H]3CCOC3)c(Cl)cc12 (stereo in doubt) [Compound 93]	
0.011	0.235	CC[C@H]1CN([C@H](CC)c2ccc(OC(F)(F)F)cc2)[C@H](CC)CN1c1nc2nncn2c2ccc(C#N)nc12 (stereo in doubt) [Compound 101]	
0.011	0.183	CC[C@H]1CN([C@H](CC)c2ccc(C(F)(F)F)nc2)[C@H](CC)CN1c1nc2nncn2c2ccc(C#N)nc12 (stereo in doubt) [Compound 112]	
0.01	1.57	CC[C@H]1C[C@]2(CCN1c1nc(=O)n(C)c3ccc(C#N)nc13)CC(c1ccc(OC(F)(F)F)cc1)=NO2 (single isomer, unassigned) [Compound 74]	
0.01	0.404	CC[C@@H]1CN(c2nc3nncn3c3ccc(C#N)nc23)[C@@H](C)CN1[C@H](CC)c1ccc(S(F)(F)(F)(F)F)cc1 (stereo in doubt) [Compound 90]	
0.009	0.367	CC[C@H]1CN([C@@H](c2ccc(SC(F)(F)F)cc2)c2nc(C3CC3)cs2)[C@H](CC)CN1c1nc(=O)n(C)c2ccc(C#N)nc12 [Compound 58]	
0.009	> 10	Cc1ccc2oc(C3CCN(c4nc(=O)n(C)c5cc(O[C@@H]6CCOC6)c(Cl)cc45)CC3)nc2c1 [Compound 32]	
0.009	1.16	CC[C@@H]1CN(c2nc3nncn3c3ccc(C#N)nc23)[C@@H](CC)CN1C(=O)c1ccc(C(F)(F)F)cc1 [Compound 84]	
0.006	0.114	CC[C@@H]1CN2c3c(c(=O)n(C)c4ccc(C#N)nc34)OC[C@@H]2CN1[C@H](CC)c1ccc(SC(F)(F)F)cc1 [Compound 124]	
0.006	0.016	CC[C@@H]1CN(c2nc3nncn3c3ccc(C#N)nc23)[C@@H](C)CN1[C@@H](CC)c1ccc(C(F)(F)F)cc1 (stereo in doubt) [Compound 81]	
0.005	0.499	CC[C@H]1CN([C@H](C)c2ccc(SC(F)(F)F)cc2)[C@H](CC)CN1c1nc2nncn2c2ccc(C#N)nc12 (stereo in doubt) [Compound 52]	
0.005	0.006	CC[C@H]1C[C@H](c2nc3cc(C)ccc3o2)CCN1c1nc(=O)n(C)c2cc(OC3CCOC3)c(Cl)cc12 (single isomer, unassigned) [Compound 97]	
0.004	2.82	CC[C@@H]1C[C@@H](c2nc3cc(C)ccc3o2)CCN1c1nc(=O)n(C)c2cc(OC3CCOC3)c(Cl)cc12 (stereo in doubt) [Compound 96]	
0.004	0.053	CC[C@@H]1CN(c2nc3nncn3c3ccc(C#N)nc23)[C@@H](C)CN1[C@@H](CC)c1ccc(SC(F)(F)F)cc1 (stereo in doubt) [Compound 66]	
0.003	0.053	CC[C@H]1CN([C@H](c2ccc(SC(F)(F)F)cc2)c2nc(C3CC3)no2)[C@H](CC)CN1c1nc(=O)n(C)c2ccc(C#N)nc12 (stereo in doubt) [Compound 70]	
0.002	0.454	CC[C@@H]1CN(c2nc3nncn3c3ccc(C#N)nc23)[C@@H](C)CN1[C@H](CC)c1ccc(C(F)(F)F)cc1 (stereo in doubt) [Compound 82]	
0.002	0.06	Cc1ccc2oc(C3CCN(c4nc(=O)n(C)c5cc(O[C@H]6CCOC6)c(Cl)cc45)CC3)nc2c1 [Compound 33]	
0.002	0.093	CC[C@H]1CN([C@H](CC)c2ccc(S(F)(F)(F)(F)F)cc2)[C@H](CC)CN1c1nc2nncn2c2ccc(C#N)nc12 [Compound 87]	
0.001	0.03	CC[C@H]1CN([C@@H](CC)c2ccc(OC(F)(F)F)cc2)[C@H](CC)CN1c1nc2nncn2c2ccc(C#N)nc12 (single isomer, unassigned) [Compound 100]	
